According to patent US10294236B2, “Compounds as rearranged during transfection (RET) inhibitors” (GLAXOSMITHKLINE INTELLECTUAL PROPERTY DEVELOPMENT LIMITED, priority 2014, dated 2019):
Where a name gives a salt, the structure may show the parent alone.

biological target: T1, Human RET kinase cytoplasmic domain (Homo sapiens, UniProt P07949); assay: RET kinase enzymatic assay; format: biochemical
T1 construct: made in house
T1 sequence (P07949 658-1114): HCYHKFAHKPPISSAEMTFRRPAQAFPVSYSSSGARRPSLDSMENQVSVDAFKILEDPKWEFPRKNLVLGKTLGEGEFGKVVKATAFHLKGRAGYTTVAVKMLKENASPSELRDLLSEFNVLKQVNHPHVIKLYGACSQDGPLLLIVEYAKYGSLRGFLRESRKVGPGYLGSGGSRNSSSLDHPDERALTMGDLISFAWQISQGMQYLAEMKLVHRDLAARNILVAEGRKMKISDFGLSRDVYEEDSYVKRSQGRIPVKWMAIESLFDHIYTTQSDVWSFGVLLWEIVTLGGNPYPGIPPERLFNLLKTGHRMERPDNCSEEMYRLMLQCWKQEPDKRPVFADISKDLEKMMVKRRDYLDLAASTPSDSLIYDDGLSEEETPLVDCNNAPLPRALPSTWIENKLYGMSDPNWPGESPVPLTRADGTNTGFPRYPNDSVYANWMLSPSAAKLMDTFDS
Protocol: GST-RET was purified using glutathione sepharose chromatography. The RET kinase enzymatic assay was performed in a total volume of 10 uL with increasing concentrations of RET kinase inhibitor as a singlet in a 384 well format as follows: RET inhibitor compound plates are prepared by adding 100 nL of RET inhibitor at different concentrations to a 384-well plate. 5 μL/well of a 2× enzyme mix (50 mM HEPES (4-(2-hydroxyethyl)-1-piperazineethanesulfonic acid); 1 mM CHAPS (3-[(3-cholamidopropyl)dimethylammonio]-1-propanesulfonate); 0.1 mg/mL BSA (bovine serum albumin); 1 mM DTT (dithiothreitol); 0.2 nM RET kinase) was added to the 384-well plate and incubated for 30 minutes at 23° C. 5 µL/well of a 2× substrate mix (50 mM HEPES; 1 mM CHAPS; 0.1 mg/mL BSA; 20 μM adenosine triphosphate; 20 mM MgCl2 and 1 μM biotinylated peptide substrate) was added and incubated for 1 hour at 23° C. […] IC50s were fitted using GraphPad Prism to a sigmoidal dose response.

IC50, < 100 nM:
CCOc1cc(=O)[nH]cc1-c1ncc(NC(=O)Nc2ccc(C(C)(C)C#N)c(C(F)(F)F)c2)c(C)n1 [Example 26, 1-(4-(2-Cyanopropan-2-yl)-3-(trifluoromethyl)phenyl)-3-(2-(4-ethoxy-6-oxo-1,6-dihydropyridin-3-yl)-4-methylpyrimidin-5-yl)urea]
CCOc1cc(-c2ccc(NC(=O)Nc3ccc(CC(F)(F)CO)c(C(F)(F)F)c3)c(F)c2)c[nH]c1=O [Example 125]
CCOc1nc(=O)[nH]cc1-c1ccc(NC(=O)Nc2ccc(OC3(C)COC3)c(C(F)(F)F)c2)c(F)c1 [Example 34, 1-(4-(4-Ethoxy-2-oxo-1,2-dihydropyrimidin-5-yl)-2-fluorophenyl)-3-(4-((3-methyloxetan-3-yl)oxy)-3-(trifluoromethyl)phenyl)urea]
CCOc1cc(-c2ncc(NC(=O)Nc3cc(C(F)(F)F)c(CN4CCN(CCO)CC4)cc3F)c(C)n2)c[nH]c1=O [Example 171, 1-(2-(5-Ethoxy-6-oxo-1,6-dihydropyridin-3-yl)-4-methylpyrimidin-5-yl)-3-(2-fluoro-4-((4-(2-hydroxyethyl)piperazin-1-yl)methyl)-5-(trifluoromethyl)phenyl)urea]
CCOc1cc(-c2nc(C)c(NC(=O)Nc3cc(-n4cnc(C)c4)cc(C(F)(F)F)c3)c(C)n2)c[nH]c1=O [Example 53, 1-(2-(5-Ethoxy-6-oxo-1,6-dihydropyridin-3-yl)-4,6-dimethylpyrimidin-5-yl)-3-(3-(4-methyl-1H-imidazol-1-yl)-5-(trifluoromethyl)phenyl)urea]
CCOc1cc(-c2cnc(NC(=O)Nc3ccc(OC4(C)COC4)c(C(F)(F)F)c3)cc2C)c[nH]c1=O [Example 62, 1-(5′-Ethoxy-4-methyl-6′-oxo-1′,6′-dihydro-[3,3′-bipyridin]-6-yl)-3-(4-((3-methyloxetan-3-yl)oxy)-3-(trifluoromethyl)phenyl)urea]
CCOc1cc(-c2ncc(NC(=O)Nc3cc(C(F)(F)F)c(CN(C)C)cc3F)c(C)n2)c[nH]c1=O [Example 190, 1-(4-((Dimethylamino)methyl)-2-fluoro-5-(trifluoromethyl)phenyl)-3-(2-(5-ethoxy-6-oxo-1,6-dihydropyridin-3-yl)-4-methylpyrimidin-5-yl)urea dihydrochloride]
CCOc1cc(-c2ncc(NC(=O)Nc3ccc(CC(C)(C)C#N)c(C(F)(F)F)c3)c(C)n2)c[nH]c1=O [Example 14, 1-(4-(2-Cyano-2-methylpropyl)-3-(trifluoromethyl)phenyl)-3-(2-(5-ethoxy-6-oxo-1,6-dihydropyridin-3-yl)-4-methylpyrimidin-5-yl)urea]
CCOc1cc(-c2ncc(NC(=O)Nc3ccc(CCN4CCCC4)c(C(F)(F)F)c3)c(C)n2)c[nH]c1=O [Example 177, 1-(2-(5-Ethoxy-6-oxo-1,6-dihydropyridin-3-yl)-4-methylpyrimidin-5-yl)-3-(4-(2-(pyrrolidin-1-yl)ethyl)-3-(trifluoromethyl)phenyl)urea]
O=C(Nc1ccc(-c2ccc(=O)[nH]c2)cc1)Nc1ccc(CN2CCNCC2)c(C(F)(F)F)c1 [Example 17, 1-(4-(6-Oxo-1,6-dihydropyridin-3-yl)phenyl)-3-(4-(piperazin-1-ylmethyl)-3-(trifluoromethyl)phenyl)urea]
COCCOc1cc(=O)[nH]cc1-c1ncc(NC(=O)Nc2cc(C(=O)NCCN(C)C)cc(C(F)(F)F)c2)c(C)n1 [Example 187, N-(2-(dimethylamino)ethyl)-3-(3-(2-(4-(2-methoxyethoxy)-6-oxo-1,6-dihydropyridin-3-yl)-4-methylpyrimidin-5-yl)ureido)-5-(trifluoromethyl)benzamide]
CCOc1cc(-c2ncc(NC(=O)Nc3ccc(CN(C)C)c(C(F)(F)F)c3)c(C)n2)c[nH]c1=O [Example 58, 1-(4-((Dimethylamino)methyl)-3-(trifluoromethyl)phenyl)-3-(2-(5-ethoxy-6-oxo-1,6-dihydropyridin-3-yl)-4-methylpyrimidin-5-yl)urea]
CCOc1cc(-c2ccc(NC(=O)Nc3ccc(C(C)(C)CO)c(C(F)(F)F)c3)c(F)c2)c[nH]c1=O [Example 120]
Cc1cc(-c2ccc(=O)[nH]c2)ccc1NC(=O)Nc1ccc(OC2(C)COC2)c(C(F)(F)F)c1 [Example 137]
CCOc1cc(-c2ccc(NC(=O)Nc3ccc(OC4(C)COC4)c(C(F)(F)F)c3)c(F)c2F)c[nH]c1=O [Example 119]
CCOc1cc(-c2ccc(NC(=O)Nc3ccc(OC4(C)COC4)c(C(F)(F)F)c3)c(CC)n2)c[nH]c1=O [Example 102]
CCOc1cc(=O)[nH]cc1-c1ncc(NC(=O)Nc2cc(-n3cnc(C)c3)cc(C(F)(F)F)c2)c(C)n1 [Example 52, 1-(2-(4-Ethoxy-6-oxo-1,6-dihydropyridin-3-yl)-4-methylpyrimidin-5-yl)-3-(3-(4-methyl-1H-imidazol-1-yl)-5-(trifluoromethyl)phenyl)urea]
COc1cc(-c2ccc(NC(=O)Nc3ccc(OC4(C)COC4)c(C(F)(F)F)c3)cc2)c[nH]c1=O [Example 21, 1-(4-(5-Methoxy-6-oxo-1,6-dihydropyridin-3-yl)phenyl)-3-(4-((3-methyloxetan-3-yl)oxy)-3-(trifluoromethyl)phenyl)urea]
CCOc1cc(=O)[nH]cc1-c1ncc(NC(=O)Nc2cc(C(C)(C)C(F)(F)F)on2)cn1 [Example 180, 1-(2-(4-Ethoxy-6-oxo-1,6-dihydropyridin-3-yl)pyrimidin-5-yl)-3-(5-(1,1,1-trifluoro-2-methylpropan-2-yl)isoxazol-3-yl)urea hydrochloride]
CC(C)(C)c1cc(NC(=O)Nc2ccc(-c3ccc(=O)[nH]c3)cc2)n(-c2ccccc2)n1 [Example 68, 1-(3-(tert-Butyl)-1-phenyl-1H-pyrazol-5-yl)-3-(4-(6-oxo-1,6-dihydropyridin-3-yl)phenyl)urea]
CCOc1cc(-c2ncc(NC(=O)Nc3ccc(C(C)O)c(C(F)(F)F)c3)c(C)n2)c[nH]c1=O (stereo not shown) [Example 10, 1-(2-(5-Ethoxy-6-oxo-1,6-dihydropyridin-3-yl)-4-methylpyrimidin-5-yl)-3-(4-(1-hydroxyethyl)-3-(trifluoromethyl)phenyl)urea]
Cc1[nH]c(=O)ccc1-c1ccc(NC(=O)Nc2ccc(OC3(C)COC3)c(C(F)(F)F)c2)c(F)c1 [Example 40, 1-(2-Fluoro-4-(2-methyl-6-oxo-1,6-dihydropyridin-3-yl)phenyl)-3-(4-((3-methyloxetan-3-yl)oxy)-3-(trifluoromethyl)phenyl)urea]
CC1(Oc2ccc(NC(=O)Nc3ccc(-c4c[nH]c(=O)c5ccoc45)cc3F)cc2C(F)(F)F)COC1 [Example 19, 1-(2-Fluoro-4-(4-oxo-4,5-dihydrofuro[3,2-c]pyridin-7-yl)phenyl)-3-(4-((3-methyloxetan-3-yl)oxy)-3-(trifluoromethyl)phenyl)urea]
CC1(Oc2ccc(NC(=O)Nc3ccc(-c4c[nH]c(=O)c(O)c4)cc3F)cc2C(F)(F)F)COC1 [Example 94]
CCOc1cc(-c2ccc(NC(=O)Nc3cc(C(C)(C)C(F)(F)F)on3)c(F)c2)c[nH]c1=O [Example 11, 1-(4-(5-Ethoxy-6-oxo-1,6-dihydropyridin-3-yl)-2-fluorophenyl)-3-(5-(1,1,1-trifluoro-2-methylpropan-2-yl)isoxazol-3-yl)urea]
CCOc1cc(-c2ccc(NC(=O)Nc3ccc(OC(C)(C)C#N)c(C(F)(F)F)c3)c(F)c2)c[nH]c1=O [Example 83]
CCOc1cc(-c2ccc(NC(=O)Nc3ccc(OC(C)C)c(C(F)(F)F)c3)c(C)n2)c[nH]c1=O [Example 5, 1-(5′-Ethoxy-6-methyl-6′-oxo-1′,6′-dihydro-[2,3′-bipyridin]-5-yl)-3-(4-isopropoxy-3-(trifluoromethyl)phenyl)urea]
CCOc1cc(-c2ccc(NC(=O)Nc3ccc(Cc4cnn(C)c4)c(C(F)(F)F)c3)c(F)c2)c[nH]c1=O [Example 146]
CCOc1cc(-c2ccc(NC(=O)Nc3ccc(OC(C)CO)c(C(F)(F)F)c3)c(F)c2)c[nH]c1=O (stereo not shown) [Example 122]
CCOc1cc(-c2cnc(NC(=O)Nc3cc(C(C)(C)C(F)(F)F)on3)c(C)n2)c[nH]c1=O [Example 16, 1-(5-(5-Ethoxy-6-oxo-1,6-dihydropyridin-3-yl)-3-methylpyrazin-2-yl)-3-(5-(1,1,1-trifluoro-2-methylpropan-2-yl)isoxazol-3-yl)urea]
CCOc1cc(-c2ccc(NC(=O)Nc3ccc(C#N)c(C(F)(F)F)c3)c(F)c2)c[nH]c1=O [Example 158]
